In patent US20060140863A1, “Production of a dye agent for colouring cells in the human or animal body” (Fluoron GMBH, priority 2002, published 2006):
Like-named read-outs stand apart in the source and are kept apart here.

Columns and labels:
[1] = Cahen 1964 and BLURHEX product information; cited from earlier work
[2] = known from Solomon et al 1989 and Veckener et al 2002 (rabbit eyes); cited from earlier work
[3] = Cytotoxicity, general statement; assay type: cell-based; details: biocompatible solution according to the invention, in comparison with trypan blue
Description: Trypan blue is a cytotoxic substance, as is known for example from Solomon K D et al: Protective effect of the anterior lens capsule during extra capsular cataract extraction, OPHTHALMOLOGY, Vol 96, No 5, May 1989, 591-597, and Veckener M et al: Ocular toxicity study of trypan blue injected into the vitreous cavity of rabbit eyes, Graefe's Arch. Clin. Ex. Ophthalmol. (2002) 239:698-704. When using trypan blue therefore complete flushing out in particular of the region of the eye in which the trypan blue was used as a dye agent is required immediately after the cataract operation in order to prevent it from remaining in the body or in the eye for a prolonged period of time.

ARPE-19-cells = test: Cytotoxicity by protein content of treated cell cultures vs untreated controls (growth inhibition); assay type: cell-based; details: differing levels of concentration, 68 to 72 hours in an incubator, protein content vs untreated control
Description: (§1) The vitality of the cells and a deduced cytotoxicity is quantitatively determined by determining the protein content of the treated cell cultures in comparison with untreated control cultures. The protein content is ascertained by a colorimetric procedure with a standard process.
(§2) It is found in this respect that cytotoxicity of a significant level corresponding to growth inhibition of more than 30% is not present.

mouse cells L 929 = test: as above; assay type: cell-based; details: L 929 cells, differing levels of concentration, 68 to 72 hours in an incubator, protein content vs untreated control
Description: as §1, §2

Cc1cc(-c2ccc(/N=N/c3c(S(=O)(=O)O)cc4cc(S(=O)(=O)O)cc(N)c4c3O)c(C)c2)ccc1/N=N/c1c(S(=O)(=O)O)cc2cc(S(=O)(=O)O)cc(N)c2c1O [Trypan blue, trypan blue]
teratogenic or mutagenic action [1]: teratogenic or mutagenic action
cytotoxicity [2]: cytotoxic

CCN(CC)c1ccc(C(=C2C=CC(=[N+](CC)CC)C=C2)c2cc(O)c(S(=O)(=O)[O-])cc2S(=O)(=O)[O-])cc1.CCN(CC)c1ccc(C(=C2C=CC(=[N+](CC)CC)C=C2)c2cc(O)c(S(=O)(=O)[O-])cc2S(=O)(=O)[O-])cc1.[Ca+2] [patent blue V]
cytotoxicity [3]: does not have any cytotoxicity
growth inhibition (cytotoxicity of a significant level = more than 30%) (ARPE-19-cells): ≤ 30%
growth inhibition (cytotoxicity of a significant level = more than 30%) (mouse cells L 929): ≤ 30%

brilliant blue R
cytotoxicity [3]: does not have any cytotoxicity
